Values of other authors in patent US12350336B2, “Photo-activatable compound, its preparation and therapeutic use” (City University of Hong Kong, priority 2021, dated 2025).

Conditions: calibration standard value

CN(C)c1ccc2nc3ccc(=[N+](C)C)cc-3sc2c1 [MB, Methylene blue]
ΦΔ (1O2 quantum yield) of calibration standard: 0.52
